In article PMC5761851, “Application of a phenotypic drug discovery strategy to identify biological and chemical starting points for inhibition of TSLP production in lung epithelial cells” (PLoS ONE, 2018):

Experiments:
Assay in all cases: kinase selectivity panel
Format in all cases: biochemical
Abl = target: T1, Abl (Homo sapiens, UniProt P00519); conditions: read-out: percentage of control activity (POC), Abl
T1 construct: purchased Eurofins Pharma Discovery Services (KinaseProfiler; Cerep BioPrint panel)
Description: (§1) Kinase selectivity was evaluated at Eurofins Pharma Discovery Services using a selection of 125 representative kinases tested at a concentration of 10 μM in duplicate (S3 Table). IC50 values for selected activities were further characterized at 9 duplicate concentrations. DNA-PK activity was determined at the SelectScreen® Biochemical kinase Profiling Service of Thermo Fisher Scientific.

CK2α2 = target: T2, CK2α2 (Homo sapiens, UniProt P19784); conditions: read-out: percentage of control activity (POC), CK2α2
T2 construct: purchased Eurofins Pharma Discovery Services (KinaseProfiler; Cerep BioPrint panel)
Description: as §1

CaMKIIγ = target: T3, CaMKIIγ (Homo sapiens, UniProt Q13555); conditions: read-out: percentage of control activity (POC), CaMKIIγ
T3 construct: purchased Eurofins Pharma Discovery Services (KinaseProfiler; Cerep BioPrint panel)
T3 sequence (Q13555 whole entry): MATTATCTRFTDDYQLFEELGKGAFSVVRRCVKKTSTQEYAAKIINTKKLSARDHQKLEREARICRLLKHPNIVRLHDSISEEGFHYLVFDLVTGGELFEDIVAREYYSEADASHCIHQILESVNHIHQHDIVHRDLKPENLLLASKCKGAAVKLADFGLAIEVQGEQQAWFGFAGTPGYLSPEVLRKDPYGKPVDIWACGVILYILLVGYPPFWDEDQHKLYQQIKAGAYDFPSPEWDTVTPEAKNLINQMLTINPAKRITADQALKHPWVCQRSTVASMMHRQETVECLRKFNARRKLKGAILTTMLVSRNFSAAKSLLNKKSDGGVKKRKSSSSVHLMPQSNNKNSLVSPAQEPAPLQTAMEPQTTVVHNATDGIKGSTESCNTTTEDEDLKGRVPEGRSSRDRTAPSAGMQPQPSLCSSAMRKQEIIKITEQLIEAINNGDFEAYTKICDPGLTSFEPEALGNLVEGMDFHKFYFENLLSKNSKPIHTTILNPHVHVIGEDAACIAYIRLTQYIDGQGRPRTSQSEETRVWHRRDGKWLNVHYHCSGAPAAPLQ
Description: as §1

FGFR1 = target: T4, FGFR1 (Homo sapiens, UniProt P11362); conditions: read-out: percentage of control activity (POC), FGFR1
T4 construct: purchased Eurofins Pharma Discovery Services (KinaseProfiler; Cerep BioPrint panel)
T4 sequence (P11362 22-822): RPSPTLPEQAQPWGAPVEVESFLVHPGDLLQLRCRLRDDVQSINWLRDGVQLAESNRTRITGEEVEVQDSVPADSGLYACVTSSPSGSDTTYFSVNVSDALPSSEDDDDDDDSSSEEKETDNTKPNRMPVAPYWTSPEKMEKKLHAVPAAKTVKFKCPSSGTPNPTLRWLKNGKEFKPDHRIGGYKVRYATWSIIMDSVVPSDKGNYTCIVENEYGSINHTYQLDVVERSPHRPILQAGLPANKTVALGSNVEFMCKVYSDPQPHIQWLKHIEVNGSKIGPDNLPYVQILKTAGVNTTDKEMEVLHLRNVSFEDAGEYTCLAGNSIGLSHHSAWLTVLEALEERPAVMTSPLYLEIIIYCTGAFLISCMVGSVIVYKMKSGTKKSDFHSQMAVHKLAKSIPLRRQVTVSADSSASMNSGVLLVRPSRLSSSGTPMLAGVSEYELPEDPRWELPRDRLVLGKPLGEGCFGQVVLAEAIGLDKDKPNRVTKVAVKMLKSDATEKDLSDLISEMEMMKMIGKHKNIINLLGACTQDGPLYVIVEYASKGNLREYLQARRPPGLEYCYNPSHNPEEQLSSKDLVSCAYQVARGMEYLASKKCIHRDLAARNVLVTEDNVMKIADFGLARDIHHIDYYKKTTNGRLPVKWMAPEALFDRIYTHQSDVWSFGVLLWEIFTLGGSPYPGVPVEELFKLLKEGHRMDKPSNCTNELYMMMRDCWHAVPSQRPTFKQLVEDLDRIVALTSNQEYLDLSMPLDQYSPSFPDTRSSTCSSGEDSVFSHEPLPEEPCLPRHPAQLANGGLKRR
Description: as §1

FGFR3 = target: T5, FGFR3 (Homo sapiens, UniProt P22607); conditions: read-out: percentage of control activity (POC), FGFR3
T5 construct: purchased Eurofins Pharma Discovery Services (KinaseProfiler; Cerep BioPrint panel)
Description: as §1

JAK1 = target: T6, JAK1 (Homo sapiens, UniProt P23458); conditions: read-out: percentage of control activity (POC), JAK1
T6 construct: purchased Eurofins Pharma Discovery Services (KinaseProfiler; Cerep BioPrint panel)
T6 sequence (P23458 whole entry): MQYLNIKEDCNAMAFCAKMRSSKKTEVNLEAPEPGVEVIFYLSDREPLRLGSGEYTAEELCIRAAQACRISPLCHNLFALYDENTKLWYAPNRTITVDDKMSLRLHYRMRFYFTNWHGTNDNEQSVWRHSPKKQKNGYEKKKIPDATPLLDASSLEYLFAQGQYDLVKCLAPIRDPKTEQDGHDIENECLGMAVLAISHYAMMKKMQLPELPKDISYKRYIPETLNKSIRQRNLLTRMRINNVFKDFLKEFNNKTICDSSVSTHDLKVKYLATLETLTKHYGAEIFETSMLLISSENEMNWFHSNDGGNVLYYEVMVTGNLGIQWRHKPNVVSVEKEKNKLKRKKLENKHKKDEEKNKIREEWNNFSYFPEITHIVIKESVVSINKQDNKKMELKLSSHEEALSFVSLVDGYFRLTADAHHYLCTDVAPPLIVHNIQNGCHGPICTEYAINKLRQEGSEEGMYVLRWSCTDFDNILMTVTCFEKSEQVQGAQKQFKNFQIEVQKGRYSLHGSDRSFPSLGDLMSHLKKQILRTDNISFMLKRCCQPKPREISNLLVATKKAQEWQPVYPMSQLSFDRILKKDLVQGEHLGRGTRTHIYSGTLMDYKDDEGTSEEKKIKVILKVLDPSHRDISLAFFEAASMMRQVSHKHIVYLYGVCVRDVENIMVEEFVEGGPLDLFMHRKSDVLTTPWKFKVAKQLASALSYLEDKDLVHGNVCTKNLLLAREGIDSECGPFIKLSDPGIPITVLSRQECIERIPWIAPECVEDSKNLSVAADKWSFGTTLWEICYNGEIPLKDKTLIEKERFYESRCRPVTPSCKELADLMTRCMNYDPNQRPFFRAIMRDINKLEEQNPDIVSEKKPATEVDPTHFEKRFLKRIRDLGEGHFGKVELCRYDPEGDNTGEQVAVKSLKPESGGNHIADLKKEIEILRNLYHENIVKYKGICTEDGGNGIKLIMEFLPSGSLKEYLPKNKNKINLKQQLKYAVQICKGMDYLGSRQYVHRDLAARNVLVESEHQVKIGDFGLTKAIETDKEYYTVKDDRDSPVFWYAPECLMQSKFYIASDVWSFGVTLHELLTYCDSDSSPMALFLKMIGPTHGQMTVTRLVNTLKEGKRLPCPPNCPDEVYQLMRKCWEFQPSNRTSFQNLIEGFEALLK
Description: as §1

LOK = target: T7, LOK (Homo sapiens, UniProt O94804); conditions: read-out: percentage of control activity (POC), LOK
T7 construct: purchased Eurofins Pharma Discovery Services (KinaseProfiler; Cerep BioPrint panel)
Description: as §1

Lck = target: T8, Lck (Homo sapiens, UniProt P06239); conditions: for remaining activity at 10 µM: read-out: percentage of control activity (POC), Lck
T8 construct: Eurofins Pharma Discovery Services (contract assay service)
T8 sequence (P06239 whole entry, species assumed): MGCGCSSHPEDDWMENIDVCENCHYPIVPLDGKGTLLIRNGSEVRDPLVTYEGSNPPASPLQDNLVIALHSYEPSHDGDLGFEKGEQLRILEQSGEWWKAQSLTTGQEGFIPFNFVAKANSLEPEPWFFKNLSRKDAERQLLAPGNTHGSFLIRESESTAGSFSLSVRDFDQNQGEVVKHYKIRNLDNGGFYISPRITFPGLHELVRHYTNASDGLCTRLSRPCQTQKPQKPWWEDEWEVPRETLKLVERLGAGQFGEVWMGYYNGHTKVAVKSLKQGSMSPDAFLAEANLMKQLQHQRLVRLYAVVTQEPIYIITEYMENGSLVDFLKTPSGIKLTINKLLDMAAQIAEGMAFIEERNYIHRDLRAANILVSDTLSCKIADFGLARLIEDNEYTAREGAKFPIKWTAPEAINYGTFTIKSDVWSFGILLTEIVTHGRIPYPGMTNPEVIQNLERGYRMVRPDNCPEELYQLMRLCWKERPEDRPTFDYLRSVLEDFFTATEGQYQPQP
Description: as §1

MAPKAP-K2 = target: T9, MAPKAP-K2 (Homo sapiens, UniProt P49137); conditions: read-out: percentage of control activity (POC), MAPKAP-K2
T9 construct: purchased Eurofins Pharma Discovery Services (KinaseProfiler; Cerep BioPrint panel)
T9 sequence (P49137 whole entry): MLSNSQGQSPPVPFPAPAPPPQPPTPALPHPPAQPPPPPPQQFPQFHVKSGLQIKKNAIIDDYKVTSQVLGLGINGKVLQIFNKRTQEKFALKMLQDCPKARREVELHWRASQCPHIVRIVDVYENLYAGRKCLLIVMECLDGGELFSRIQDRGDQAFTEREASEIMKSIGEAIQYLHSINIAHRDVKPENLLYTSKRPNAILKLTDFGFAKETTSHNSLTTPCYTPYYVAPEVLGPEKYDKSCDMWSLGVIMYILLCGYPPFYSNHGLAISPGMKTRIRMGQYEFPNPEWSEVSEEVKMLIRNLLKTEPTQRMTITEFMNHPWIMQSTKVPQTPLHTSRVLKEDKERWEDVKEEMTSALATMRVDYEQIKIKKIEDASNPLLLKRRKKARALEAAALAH
Description: as §1

MSK2 = target: T10, MSK2 (Homo sapiens, UniProt O75676); conditions: read-out: percentage of control activity (POC), MSK2
T10 construct: purchased Eurofins Pharma Discovery Services (KinaseProfiler; Cerep BioPrint panel)
Description: as §1

PDGFRβ = target: T11, PDGFRβ (Homo sapiens, UniProt P09619); conditions: read-out: percentage of control activity (POC), PDGFRβ
T11 construct: purchased Eurofins Pharma Discovery Services (KinaseProfiler; Cerep BioPrint panel)
Description: as §1

ROCK-I = target: T12, ROCK-I (Homo sapiens, UniProt Q13464); conditions: read-out: percentage of control activity (POC), ROCK-I
T12 construct: purchased Eurofins Pharma Discovery Services (KinaseProfiler; Cerep BioPrint panel)
Description: as §1

Rsk1 = target: T13, Rsk1 (Homo sapiens, UniProt Q15418); conditions: read-out: percentage of control activity (POC), Rsk1
T13 construct: purchased Eurofins Pharma Discovery Services (KinaseProfiler; Cerep BioPrint panel)
T13 sequence (Q15418 whole entry): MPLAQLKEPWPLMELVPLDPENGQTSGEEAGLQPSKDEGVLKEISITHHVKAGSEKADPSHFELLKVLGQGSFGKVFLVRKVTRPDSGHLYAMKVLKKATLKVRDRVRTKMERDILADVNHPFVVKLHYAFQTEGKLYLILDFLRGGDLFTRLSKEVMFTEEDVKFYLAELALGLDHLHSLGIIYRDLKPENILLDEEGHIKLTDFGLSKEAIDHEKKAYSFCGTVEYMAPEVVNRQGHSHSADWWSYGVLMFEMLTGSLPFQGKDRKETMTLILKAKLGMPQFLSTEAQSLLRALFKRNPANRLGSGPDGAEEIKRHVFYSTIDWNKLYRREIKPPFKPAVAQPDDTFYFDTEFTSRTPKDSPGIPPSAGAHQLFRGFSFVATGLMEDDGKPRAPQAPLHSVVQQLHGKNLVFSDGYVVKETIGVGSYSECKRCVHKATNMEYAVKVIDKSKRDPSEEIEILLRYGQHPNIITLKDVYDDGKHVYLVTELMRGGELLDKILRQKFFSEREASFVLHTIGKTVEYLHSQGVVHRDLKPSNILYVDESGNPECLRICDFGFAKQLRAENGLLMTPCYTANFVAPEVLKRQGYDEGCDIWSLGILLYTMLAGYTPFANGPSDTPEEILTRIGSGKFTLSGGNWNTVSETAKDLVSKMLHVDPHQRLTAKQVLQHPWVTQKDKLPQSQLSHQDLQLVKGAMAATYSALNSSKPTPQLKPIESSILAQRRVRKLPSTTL
Description: as §1

SRPK1 = target: T14, SRPK1 (Homo sapiens, UniProt Q96SB4); conditions: read-out: percentage of control activity (POC), SRPK1
T14 construct: purchased Eurofins Pharma Discovery Services (KinaseProfiler; Cerep BioPrint panel)
Description: as §1

TAK1 = target: T15, TAK1 (Homo sapiens, UniProt O43318); conditions: read-out: percentage of control activity (POC), TAK1
T15 construct: purchased Eurofins Pharma Discovery Services (KinaseProfiler; Cerep BioPrint panel)
T15 sequence (O43318 1-303 limits assumed): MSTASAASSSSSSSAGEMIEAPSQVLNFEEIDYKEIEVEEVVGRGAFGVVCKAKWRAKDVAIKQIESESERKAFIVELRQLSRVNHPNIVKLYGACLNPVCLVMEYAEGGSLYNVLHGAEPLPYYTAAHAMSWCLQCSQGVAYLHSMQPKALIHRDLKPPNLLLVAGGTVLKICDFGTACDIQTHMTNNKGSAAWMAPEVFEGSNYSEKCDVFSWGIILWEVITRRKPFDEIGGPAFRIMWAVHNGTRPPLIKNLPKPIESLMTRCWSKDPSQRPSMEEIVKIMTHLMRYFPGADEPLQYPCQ
Description: as §1

TBK1 = target: T16, TBK1 (Homo sapiens, UniProt Q9UHD2); conditions: read-out: percentage of control activity (POC), TBK1
T16 construct: purchased Eurofins Pharma Discovery Services (KinaseProfiler; Cerep BioPrint panel)
T16 sequence (Q9UHD2 1-729): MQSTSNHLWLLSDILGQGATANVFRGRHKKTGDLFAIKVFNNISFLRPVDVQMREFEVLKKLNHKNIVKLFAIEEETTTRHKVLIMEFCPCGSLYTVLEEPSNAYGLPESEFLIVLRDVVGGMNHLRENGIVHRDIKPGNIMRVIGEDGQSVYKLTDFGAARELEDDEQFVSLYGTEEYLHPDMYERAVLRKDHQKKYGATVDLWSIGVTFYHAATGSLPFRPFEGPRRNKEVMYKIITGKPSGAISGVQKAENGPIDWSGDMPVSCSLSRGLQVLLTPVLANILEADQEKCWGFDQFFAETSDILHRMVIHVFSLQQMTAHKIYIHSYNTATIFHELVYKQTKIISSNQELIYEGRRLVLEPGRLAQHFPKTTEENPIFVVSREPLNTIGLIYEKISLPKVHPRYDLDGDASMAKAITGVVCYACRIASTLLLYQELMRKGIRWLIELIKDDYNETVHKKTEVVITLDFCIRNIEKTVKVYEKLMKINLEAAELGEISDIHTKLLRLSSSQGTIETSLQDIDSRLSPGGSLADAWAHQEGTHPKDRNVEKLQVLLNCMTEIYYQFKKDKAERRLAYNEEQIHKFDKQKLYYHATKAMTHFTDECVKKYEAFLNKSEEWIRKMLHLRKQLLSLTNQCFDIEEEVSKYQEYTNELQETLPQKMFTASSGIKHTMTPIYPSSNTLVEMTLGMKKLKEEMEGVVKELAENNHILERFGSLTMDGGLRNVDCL
Description: as §1

TrkA = target: T17, TrkA (Homo sapiens, UniProt P04629); conditions: for remaining activity at 10 µM: read-out: percentage of control activity (POC), TrkA
T17 construct: Eurofins Pharma Discovery Services (contract assay service)
T17 sequence (P04629 33-796, species assumed): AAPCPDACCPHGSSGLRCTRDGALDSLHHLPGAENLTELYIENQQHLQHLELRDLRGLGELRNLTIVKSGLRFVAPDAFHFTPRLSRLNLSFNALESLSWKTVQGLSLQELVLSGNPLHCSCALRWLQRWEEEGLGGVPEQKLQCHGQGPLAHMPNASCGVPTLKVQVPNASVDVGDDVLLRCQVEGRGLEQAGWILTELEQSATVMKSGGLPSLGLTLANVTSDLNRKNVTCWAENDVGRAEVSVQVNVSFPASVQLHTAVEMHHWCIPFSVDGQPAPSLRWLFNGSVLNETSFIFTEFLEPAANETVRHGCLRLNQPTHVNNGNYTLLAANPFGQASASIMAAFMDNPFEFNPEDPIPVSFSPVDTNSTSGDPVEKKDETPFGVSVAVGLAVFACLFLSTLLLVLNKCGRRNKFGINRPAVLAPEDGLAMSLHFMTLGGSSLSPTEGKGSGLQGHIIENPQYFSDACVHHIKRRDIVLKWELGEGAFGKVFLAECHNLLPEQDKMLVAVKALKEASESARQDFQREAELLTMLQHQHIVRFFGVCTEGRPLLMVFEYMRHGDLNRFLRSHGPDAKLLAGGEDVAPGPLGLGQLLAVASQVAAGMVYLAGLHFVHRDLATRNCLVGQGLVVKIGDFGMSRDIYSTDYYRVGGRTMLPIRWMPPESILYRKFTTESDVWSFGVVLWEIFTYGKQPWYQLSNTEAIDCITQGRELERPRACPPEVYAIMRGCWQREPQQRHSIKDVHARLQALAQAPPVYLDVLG
Description: as §1

Yes = target: T18, Yes (Homo sapiens, UniProt P07947); conditions: for remaining activity at 10 µM: read-out: percentage of control activity (POC), Yes
T18 construct: Eurofins Pharma Discovery Services (contract assay service)
Description: as §1

| SMILES | remaining activity at 10 µM (Abl) | remaining activity at 10 µM (CK2α2) | remaining activity at 10 µM (CaMKIIγ) | remaining activity at 10 µM (FGFR1) | remaining activity at 10 µM (FGFR3) | remaining activity at 10 µM (JAK1) | remaining activity at 10 µM (LOK) | remaining activity at 10 µM (Lck; 10 μM) | remaining activity at 10 µM (MAPKAP-K2) | remaining activity at 10 µM (MSK2) | remaining activity at 10 µM (PDGFRβ) | remaining activity at 10 µM (ROCK-I) | remaining activity at 10 µM (Rsk1) | remaining activity at 10 µM (SRPK1) | remaining activity at 10 µM (TAK1) | remaining activity at 10 µM (TBK1) | remaining activity at 10 µM (TrkA; 10 μM) | remaining activity at 10 µM (Yes; 10 μM) | other results |
| --- | --- | --- | --- | --- | --- | --- | --- | --- | --- | --- | --- | --- | --- | --- | --- | --- | --- | --- | --- |
| Cn1cc(-c2cccc(-c3nc(C(=O)NC4C5CC6CC4CC(O)(C6)C5)c(N)nc3N)c2)cn1 (stereo not drawn) [compound 4] | 66% | 105% | 83% | 86% | 88% | 86% | 109% | 44% | 107% | 96% | 63% | 91% | 87% | 92% | 97% | 90% | 14% | 23% | inhibition at 10 µM (Lck; 10 μM): 56%; IC50 (Lck; biochemical dose response, duplicate, read-out: Inhibition of indicated activity (IC50, μM): Lck): 3.33 µM; inhibition at 10 µM (TrkA; 10 μM): 86%; IC50 (TrkA; biochemical dose response, duplicate, read-out: Inhibition of indicated activity (IC50, μM): TrkA): 3.23 µM; inhibition at 10 µM (Yes; 10 μM): 77%; IC50 (Yes; biochemical dose response, duplicate, read-out: Inhibition of indicated activity (IC50, μM): Yes): 2.39 µM |
| CS(=O)(=O)N1CCN(c2ccc(Nc3ncc(C(N)=O)c(NC4CC4)n3)cc2)CC1 [compound 5] | 2% | 43% | 24% | 3% | 8% | -2% | 14% | 4% | 85% | 21% | 16% | 43% | 1% | 83% | 1% | -1% | 1% | 4% |  |

More lines, main results first:

| remaining activity at 10 µM (Abl) | remaining activity at 10 µM (CK2α2) | remaining activity at 10 µM (CaMKIIγ) | remaining activity at 10 µM (FGFR1) | remaining activity at 10 µM (FGFR3) | remaining activity at 10 µM (JAK1) | remaining activity at 10 µM (LOK) | remaining activity at 10 µM (Lck; 10 μM) | remaining activity at 10 µM (MAPKAP-K2) | remaining activity at 10 µM (MSK2) | remaining activity at 10 µM (PDGFRβ) | remaining activity at 10 µM (ROCK-I) | remaining activity at 10 µM (Rsk1) | remaining activity at 10 µM (SRPK1) | remaining activity at 10 µM (TAK1) | remaining activity at 10 µM (TBK1) | remaining activity at 10 µM (TrkA; 10 μM) | remaining activity at 10 µM (Yes; 10 μM) | SMILES | other results |
| --- | --- | --- | --- | --- | --- | --- | --- | --- | --- | --- | --- | --- | --- | --- | --- | --- | --- | --- | --- |
| 104% | 105% | 91% | 80% | 99% | 91% | 107% | 98% | 108% | 90% | 70% | 97% | 104% | 103% | 105% | 108% | 91% | 107% | CC(C)(C)N1CCC(c2cc(-c3ccc(F)cc3Cl)c3cc[n+]([O-])c(-c4c(Cl)cccc4Cl)c3n2)CC1 [compound 2] |  |
| 96% | 108% | 103% | 95% | 92% | 93% | 112% | 102% | 106% | 91% | 61% | 98% | 100% | 92% | 97% | 92% | 67% | 100% | Cc1ccc(C(=O)NCC2CC2)cc1-c1ccc2c(c1)NC(=O)C21CCCC1 [compound 3] |  |
| 50% | 114% | 102% | 109% | 97% | 101% | 135% | 81% | 110% | 109% | 82% | 108% | 132% | 100% | 103% | 103% | 68% | 99% | COc1c(NC(=O)c2ccc(C)c(-c3nnc4c(NCC(C)(C)C)nccn34)c2)cc(C(C)(C)C)cc1NS(C)(=O)=O [compound 7, reference compound] |  |
